In ChEMBL document CHEMBL1156829 (Proc Natl Acad Sci U S A, 2008) one finds EC50 and CC50 data, which are given here for 41 compounds.

For data set [1], the system named is Plasmodium falciparum. As to the kind of experiment: NOVARTIS: Inhibition of Plasmodium falciparum 3D7 (drug-susceptible) proliferation in erythrocyte-based infection assay. The format is functional, organism-based. The note with it: Plasmodium falciparum, 3D7.
The subject of data set [2] is Plasmodium falciparum. Description: NOVARTIS: Inhibition of Plasmodium falciparum W2 (drug-resistant) proliferation in erythrocyte-based infection assay. The format is functional, organism-based. The settings on record: Plasmodium falciparum, W2; read-out: EC50.
The nature of data set [3]: NOVARTIS: Cytotoxicity against human hepatocellular carcinoma cell line (Huh7). The note with it: Huh7 cells (hepatocellular carcinoma cell line). Type of data set: toxicity, cell-based, Huh-7.

The EC50 is the midpoint of the concentration-response curve. For orientation: CC50 means the concentration that lowers cell viability or growth by half. Higher therefore signals better tolerance by the cells. `OP1(O)=NP(O)(O)=NP(O)(O)=NP(O)(O)=N1`: the EC50 in data set [1] is 811 nM; in data set [2], more than 1250 nM. For the same compound, the CC50 in data set [3] was more than 10000 nM.

Regarding `O=C(CSc1nc2ccccc2[nH]1)Nc1ccc(Cl)cc1Cl`, the EC50 was more than 790 nM in data set [1] and more than 1250 nM in data set [2]. The compound further returned a CC50 in data set [3] of more than 10000 nM.

For the compound `CCn1c2cc(C)sc2c2cnn(CC(=O)Nc3c(C)nn(C)c3C)c(=O)c21`, the figures for the EC50 in data set [1] and in data set [2] were more than 749 nM and more than 1250 nM, respectively. In data set [3], this compound yielded a CC50 of more than 10000 nM.

For `COc1ccccc1N1CCN(c2c3c(nc4nncn24)CCC3)CC1`, the EC50 in data set [1] is more than 736 nM; in data set [2], more than 1250 nM. For the same compound, the CC50 in data set [3] is more than 10000 nM.

On to `CCCCNC(=O)c1ccc2c(c1)N=C(c1cccc(OCC)c1)N(CCCN1CCCC1=O)C2`, for which the results for the EC50 in data set [1] and in data set [2] were more than 752 nM and more than 1250 nM, respectively. The CC50 in data set [3] is more than 10000 nM.

Turning to `O=C(CSc1nc2ccccc2c(=O)n1-c1ccc(C(=O)N2CCOCC2)cc1)c1ccccc1`, the EC50 in data set [1] is more than 772 nM; in data set [2], more than 1250 nM. This compound registered a CC50 in data set [3] of more than 10000 nM.

With `CN(C)C(=O)CN(C)C(=O)c1cnc2scc(C(C)(C)C)n2c1=O`, the EC50 was more than 820 nM in data set [1] and more than 1250 nM in data set [2]. For the same compound, the CC50 in data set [3] was more than 10000 nM.

For `COCCN(CC(=O)Nc1cc(C(C)(C)C)nn1-c1ccc(C)cc1)C(=O)COCc1ccccc1`, the EC50 in data set [1] is more than 818 nM; in data set [2] it was more than 1250 nM. The CC50 in data set [3] is more than 10000 nM.

Turning to `CN(C)CCCNc1ncc(C(=O)NCc2ccccc2)c(NCCc2ccccc2)n1`, the EC50 in data set [1] is 817 nM; in data set [2] it was more than 1250 nM. For the same compound, the CC50 in data set [3] was more than 10000 nM.

`O=C1C=CC(=O)N1c1ccc(Sc2ccc(N3C(=O)C=CC3=O)cc2)cc1`: the EC50 in data set [1] is more than 814 nM; in data set [2] it was more than 1250 nM. Besides, the CC50 in data set [3] is more than 10000 nM.

Turning to `COc1ccc(OCCOCCN2CCN(C)CC2)cc1`, the EC50 in data set [1] was more than 8080 nM; in data set [2], more than 12500 nM. In data set [3], this compound returned a CC50 of more than 100000 nM.

`O=C(COc1ccccc1Cl)OCc1cc(=O)n2nc(C3CC3)sc2n1`: the EC50 is more than 803 nM in data set [1] and more than 1250 nM in data set [2]. In addition, the CC50 in data set [3] is more than 10000 nM.

Take `COc1ccc(NC(=O)COc2ccccc2C(C)C)c(OC)c1`: the values for the EC50 in data set [1] and in data set [2] were 7950 nM and more than 12500 nM, respectively. In data set [3], this compound had a cytotoxic concentration (CC50) of more than 100000 nM.

Regarding `COc1ccc(Cn2c(SCC(=O)Nc3ccccc3OC)nc3ccsc3c2=O)cc1`, the EC50 in data set [1] was more than 778 nM; in data set [2] it was more than 1250 nM. Moreover, in data set [3], the CC50 is more than 10000 nM.

With `CC(C)CNc1nc(NCCC2CCCN2C)ncc1C(=O)NCc1ccccc1` (stereo not drawn), the EC50 in data set [1] was 775 nM; in data set [2], more than 1250 nM. For the same compound, the CC50 in data set [3] is more than 10000 nM.

For the compound `CC(=O)OC(OC(C)=O)C12C=CC(O1)C1C(=O)N(c3cccc(C)c3)C(=O)C12` (stereo not drawn), the EC50 in data set [1] is more than 794 nM; in data set [2], more than 1250 nM. For the same compound, the CC50 in data set [3] was more than 10000 nM.

Regarding `O=C(OCCOc1ccc([N+](=O)[O-])cc1)c1ccc(Br)o1`, the EC50 in data set [1] was 782 nM; in data set [2] it was more than 1250 nM. Further, in data set [3], the CC50 was more than 10000 nM.

In the case of `COC(=O)c1[nH]c2ccc(Cl)cc2c1NC(=O)C(C)N1CCN(C2CCCCC2)CC1` (stereo not drawn), the EC50 was 7740 nM in data set [1] and more than 12500 nM in data set [2]. The compound further returned a CC50 in data set [3] of more than 100000 nM.

For `CC(C)CNC(=O)c1cnc(NCCCN2CCCC2)nc1NC1CCCC1`, the EC50 is 774 nM in data set [1] and more than 1250 nM in data set [2]. Also, in data set [3], the CC50 is more than 10000 nM.

With `COc1ccc(/C=C(\NC(=O)c2ccccc2Br)C(=O)N2CC3CC(C2)c2cccc(=O)n2C3)cc1OC` (stereo not drawn), the EC50 in data set [1] was more than 764 nM; in data set [2], more than 1250 nM. Besides, the CC50 in data set [3] is more than 10000 nM.

On to `NC(=O)C1CCN(S(=O)(=O)c2cc(Br)c(Br)s2)CC1`, for which the EC50 in data set [1] was more than 751 nM; in data set [2] it was more than 1250 nM. For the same compound, in data set [3], the CC50 was more than 10000 nM.

For the compound `O=C(Nc1ccc(-c2nnc(-c3ccccc3)o2)cc1)c1ccc(Br)cc1`, the EC50 in data set [1] is 750 nM; in data set [2], more than 1250 nM. Besides, in data set [3], the CC50 was more than 10000 nM.

In the case of `CC1CCc2c(sc(NC(=O)c3ccccc3F)c2C(=O)NCc2ccccc2)C1` (stereo not drawn), the values for the EC50 in data set [1] and in data set [2] were more than 699 nM and more than 1250 nM, respectively. This compound gave a CC50 in data set [3] of more than 10000 nM.

With `CCC(=O)N=c1sc2cc([N+](=O)[O-])ccc2n1CCOC`, the values for the EC50 in data set [1] and in data set [2] were more than 686 nM and more than 1250 nM, respectively. The CC50 in data set [3] is more than 10000 nM.

In the case of `Cc1cc(C)n2nc(-c3ccc(Cl)cc3)cc2n1`, the EC50 in data set [1] is more than 685 nM; in data set [2] it was more than 1250 nM. This compound displayed a CC50 in data set [3] of more than 10000 nM.

Consider `CCOC(=O)N1CCN(C(=O)CSc2nc(-c3ccc(Cl)cc3)cn2-c2ccc(C)cc2)CC1`, for which the EC50 in data set [1] is 710 nM; in data set [2], more than 1250 nM. In addition, the CC50 in data set [3] is more than 10000 nM.

On to `CN(C)c1nc(Cl)nc(N(C#N)CCOc2ccccc2)n1`, for which the EC50 was more than 703 nM in data set [1] and more than 1250 nM in data set [2]. The compound further showed a CC50 in data set [3] of more than 10000 nM.

As to `CC(C)CNC(=O)c1cnc(NCCC2CCCN2C)nc1NCCc1ccccc1` (stereo not drawn), the EC50 in data set [1] was 699 nM; in data set [2] it was more than 1250 nM. Besides, the CC50 in data set [3] is more than 10000 nM.

With `O=C(NCc1ccccc1)c1cnc(NCCCN2CCCC2)nc1NCC1CCCCC1`, the EC50 was 733 nM in data set [1] and more than 1250 nM in data set [2]. Besides, the CC50 in data set [3] was more than 10000 nM.

In the case of `CC(C)CNc1nc(NCCCN2CCCC2)ncc1C(=O)NCCc1ccccc1`, the EC50 was 719 nM in data set [1] and more than 1250 nM in data set [2]. The compound further registered a CC50 in data set [3] of more than 10000 nM.

In the case of `CCOC(=O)c1oc2cc(O)c(CC)cc2c(=O)c1-c1ccc2c(c1)OCO2`, the figures for the concentration giving a half-maximal response (EC50) in data set [1] and in data set [2] were more than 834 nM and more than 1250 nM, respectively. In addition, the half-maximal cytotoxic concentration (CC50) in data set [3] was more than 10000 nM.

Consider `COCCCNc1nc2nonc2nc1N(C)C1CCOCC1`, for which the EC50 in data set [1] was more than 682 nM; in data set [2], more than 1250 nM. The compound also returned a CC50 in data set [3] of more than 10000 nM.

In the case of `Cc1ccnc(NC(c2ccc3ccccc3c2)c2ccc3cccnc3c2O)c1` (stereo not drawn), the EC50 was 6750 nM in data set [1] and more than 12500 nM in data set [2]. The same compound displayed a CC50 in data set [3] of more than 100000 nM.

On to `O=C1CSC(=S)N1c1cccc(Cl)c1`, for which the EC50 in data set [1] was 6870 nM; in data set [2] it was more than 12500 nM. The compound also displayed a CC50 in data set [3] of more than 100000 nM.

Consider `N#Cc1cn(-c2ccc(Cl)cc2)c(=O)n(Cc2c(Cl)cccc2Cl)c1=O`, for which the values for the EC50 in data set [1] and in data set [2] were 816 nM and more than 1250 nM, respectively. In data set [3], the CC50 is more than 10000 nM.

Take `Cc1ccc(NC(=O)c2nc[nH]c2C(=O)Nc2nc3ccccc3[nH]2)c(C)c1`: the figures for the EC50 in data set [1] and in data set [2] were 7290 nM and more than 12500 nM, respectively. Further, the CC50 in data set [3] is more than 100000 nM.

Consider `Cc1ccc(S(=O)(=O)NNC(=O)C2CCC(c3ccccc3)CC2)c2nsnc12` (stereo not drawn), for which the EC50 was 727 nM in data set [1] and more than 1250 nM in data set [2]. The same compound registered a CC50 in data set [3] of more than 10000 nM.

Turning to `Cc1nc(-c2ccncc2)nc(NCCNc2ccc(C(F)(F)F)cn2)c1Cl`, the values for the EC50 in data set [1] and in data set [2] were 714 nM and more than 1250 nM, respectively. Also, the CC50 in data set [3] is more than 10000 nM.

For `CSc1nc(N)nc(SC2C=CCCC2)c1C#N` (stereo not drawn), the EC50 was 7060 nM in data set [1] and more than 12500 nM in data set [2]. In data set [3], this compound registered a CC50 of more than 100000 nM.

Turning to `Cc1cccc(-c2ccc(NC(=O)C3CCN(Cc4cnc(C)nc4)CC3)cc2)c1`, the EC50 is more than 6880 nM in data set [1] and more than 12500 nM in data set [2]. In data set [3], this compound yielded a CC50 of more than 100000 nM.

Consider `Cc1cccc2nc(N)nc(N)c12`, for which the results for the EC50 in data set [1] and in data set [2] were 753 nM and more than 1250 nM, respectively. For the same compound, the half-maximal cytotoxic concentration (CC50) in data set [3] is more than 10000 nM.
